Patent US9303076B2, “Cell-penetrating peptides and uses thereof” (Hoffmann-La Roche Inc., priority 2010, dated 2016)
“Also recorded” adds a separate entry of the source.

Experiments:
[1] = test system: MCF-7 human breast cancer cells; experiment: cell viability/apoptosis after 24 h exposure to pro-apoptotic peptides and CPP fusions; format: cell-based; conditions: MCF-7 cells, various concentrations
Description: MCF-7 human breast cancer cells were incubated for 24 h in the presence of various concentrations of NRTN (squares), Nur (circles), and NurNRTN (triangles) peptides. The respective amino acid sequences are given in the bottom panel. The experimental approach for assessing cell viability (and thus induction of apoptosis) was the same as in FIG. 3.
MCF-7 human breast cancer cells were incubated for 24 h in the presence of various concentrations of 4E-BP1 (circles), TAT4E-BP1 (squares), and NRTN4E-BP1 (triangles) peptides (top panel). […] The respective amino acid sequences are given in the bottom panel. The experimental approach for assessing cell viability (and thus induction of apoptosis) was the same as in FIG. 3.
Luminescence was analyzed in an InfiniteF200 luminescence reader.
Then, the cells were treated with a luminogenic peptide substrate in order to measure dead-cell protease activity, which is released from cells that have lost membrane integrity. […] The luminescence of this assay therefore represents dead cells. The 96 well plates were then analyzed in an InfiniteF200 luminescence reader.
Despite its proven ability to convert BCL-2 into a pro-apoptotic molecule, addition of the latter peptide (i.e. “Nor/Nur”; SEQ ID NO: 72) to cancer cells, even in high concentrations, is not sufficient to induce apoptosis, as the cellular target protein is located in the cytoplasm, but the peptide per se cannot effectively penetrate through the cell membrane to reach the target. In brief, MCF-7 breast cancer cells were incubated in the presence of this peptide for 24 h.
Subsequently, it was evaluated whether the NurNRTN fusion peptide is capable of penetrating cellular membranes and thereby induces pro-apoptotic activity within cells. MCF-7 human breast cancer cells were used as a model. The experimental approach was as described above (cf. Example 1). […] This effect was dose dependent: cytotoxicity increased with increasing concentrations of peptide.
Subsequently, it was evaluated whether the NRTN4E-BP1 fusion peptide is capable of penetrating cellular membranes and thereby induces pro-apoptotic activity within cells. MCF-7 human breast cancer cells were used as a model. The experimental approach was as described above (cf. Example 1). […] This effect was dose dependent: cytotoxicity increased with increasing concentrations of peptide.

siRNA duplex = experiment: gel-shift assay of peptide/siRNA complex formation; format: binding; conditions: ethidium bromide staining
Description: Gel-shift assays were performed by mixing […] siRNA duplex with the respective peptides in a given molar ratio in water. The complexes were formed for 1 hour at 37° C. and analyzed on a 2.5% agarose gel with ethidium bromide (run: 40 minutes at 125 V). For proteinase K treatment, 1 μl proteinase K was added to a standard reaction as indicated above.
Mechanisms that may explain transfection functionalities of charged peptides such as TAT or protamine include the formation of complexes between positively charged peptides and negatively charged nucleic acids. Such complexes enable peptide-mediated membrane-interacting and/or endosome escape functionalities to transfer the complexed nucleic acids into the cytosol of cells (Law, M. et al. (2008) Biotechnol. Prog. 24, 957-963) In order to address whether the above mechanism may apply to the NTRN-derived peptide as well gel-shift assays were performed (cf. FIG. 8). To this end, siRNA was co-incubated with increasing concentrations of peptide, followed by analyses of their migration pattern via gel electrophoresis.

recombinant BCL2 = molecular target: T1, recombinant BCL2 (Homo sapiens, UniProt P10415); experiment: BCL2 binding to bead-immobilized peptides; conditions: iodoacetyl beads, elution buffer pH 2.8, protein stain
T1 construct: purchased Calbiochem/Merck, Darmstadt, Germany
Description: In order to determine whether the BCL2 binding properties of the Nur77-derived peptide are maintained in the NurNRTN fusion peptide, the respective NurNRTN and NRTN peptides were coupled to iodoacetyl beads (Pierce Biotechnology, Inc., Rockford, Ill., USA). The beads were incubated with recombinant BCL2 (Calbiochem/Merck, Darmstadt, Germany) and washed with PBS and 0.5 M NaCl, 0.025 NaN3, 0.05% Tween20 to remove unbound protein. Specific binding of BCL2 to the immobilized NurNTRN fusion peptide was determined by eluting bound […] from the beads with elution buffer (pH 2.8), transfer of the eluted fraction to nitrocellulose (Invitrogen Corporation, Carlsbad, Calif., USA), and protein detection by means of the MemCode Reversible Protein Stain Kit (Pierce Biotechnology, Inc., Rockford, Ill., USA).

MCF7 cells = experiment: FACS analysis of internalization of FITC-labeled peptides; format: cell-based, human
Description: For FACS analysis, MCF7 cells (ATCC number HTB-22) were detached by 15 min incubation in accutase (an enzyme solution having proteolytic and collagenolytic activities; commercially available from various suppliers). After washing in FACS buffer (PBS containing 5% FCS), the cells were seeded in a 96 well, rounded bottom multi-well plate (Cat. No. 3799, Corning Inc., Corning, N.Y. USA) in a final density of 3×10^5 cells/ml and used immediately. The cells were incubated in the respective presence of 1 μM, 5 μM and 10 μM FITC-labeled peptides in OptiMEM medium for 3 hours at 37° C. Afterwards, the cells were washed in FACS buffer and incubated in proteinase K (0.02 mg/ml) containing buffer for 30 minutes at 37° C. The cells were washed twice and analyzed with the FACSCanto II (BD Biosciences; San Jose, Calif., USA) using the FITC channel.
For determining the internalization behavior of the CPPs identified in the screening procedures FITC-labeled derivates of said peptides (at 1 μM, 5 μM, and 10 μM, respectively) were analyzed by means of FACS. The following peptides were used: NRTN as a transfecting peptide, WNT16 as a non-transfecting peptide, FALL as a toxic peptide and TAT as a reference (positive control) (cf. FIG. 12). MCF7 cells were incubated in the presence of the fluorescent peptide derivatives for 3 hours at 37° C. in OptiMEM. Subsequently, the cells were treated with proteinase K for 30 minutes at 37° C. to remove surface bound peptides, and thus to ensure the monitoring only of internalized peptides. The cells were then washed in PBS and analyzed by FACS.

[2] = test system: hCMEC/D3 brain endothelial cells; experiment: uptake into brain endothelial cells (blood-brain-barrier cell culture model); format: cell-based; conditions: FITC-conjugated peptide (N- and C-terminal), 5 μM, 1 h, 37° C.; hCMEC/D3 or primary human brain endothelial cells
Description: Fluorescein isothiocyanate (FITC)-conjugated NRTN peptides (N-terminal and C-terminal conjugation, respectively) were incubated with hCMEC/D3 brain endothelial cells at 5 μM for 1 h at 37° C. Subsequently, the cells were washed and fixed. Images were taken using a fluorescence microscope.
In order to evaluate potential interactions of the NRTN-derived peptide with endothelial cells forming the blood-brain-barrier, hCMEC/D3 cells or primary human brain endothelial cells were exposed to the NRTN-derived peptide in a blood-brain-barrier (BBB) model (Weksler, B. B. et al. (2005) FASEB J. 19, 1872-1874; Poller, B. et al. (2008) J. Neurochem. 107, 1358-1363). […] Thus, the NRTN-derived peptide localizes to a compartment that is important for BBB functionality (that is, for mediating and controlling transport across the BBB).

T1 sequence (P10415 whole entry): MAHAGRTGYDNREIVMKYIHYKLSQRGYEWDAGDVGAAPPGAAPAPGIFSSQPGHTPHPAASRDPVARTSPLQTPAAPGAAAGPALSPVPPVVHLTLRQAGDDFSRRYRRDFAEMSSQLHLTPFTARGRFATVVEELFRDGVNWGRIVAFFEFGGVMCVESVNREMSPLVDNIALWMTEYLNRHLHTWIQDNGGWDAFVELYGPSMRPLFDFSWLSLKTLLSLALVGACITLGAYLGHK

Sequence: GAAEAAARVYDLGLRRLRQRRRLRRERVRA (NRTN peptide sequence; listed as Homo sapiens) [peptide derived from human neurturin]
- cell viability / induction of apoptosis [1]: did not affect cell viability or lead to induction of apoptosis
- complex formation with siRNA (siRNA duplex): able to form stable complexes with siRNA
- BCL2 in eluates from peptide-coated beads (recombinant BCL2): very small amounts of BCL2 were eluted
- internalization into cells (FACS, FITC channel) (MCF7 cells; FITC-labeled peptide 1, 5, 10 μM, 3 hours at 37° C., proteinase K treated): internalized into MCF7 cells
- change of internalization with concentration (MCF7 cells; increasing the concentration from 5 μM to 10 μM): strong increase in internalization
- uptake / localization in brain endothelial cells [2]: accumulates (i.e. internalizes) under these assay conditions in endosomal structures; also recorded: localizes to intracellular endosomal structures
